Measurements from ChEMBL document CHEMBL5244222, “A comprehensive review on xanthone derivatives as α-glucosidase inhibitors” (Eur J Med Chem, 2018).
In brackets after ≈: the same amount, converted by molar mass.

The compounds below were run against T1, Alpha-glucosidase (Saccharomyces cerevisiae S288c, UniProt P53341+P38158+P07265) (assay: Inhibition of Saccharomyces cerevisiae alpha-glucosidase using PNPG as substrate incubated for 30 mins by spectrophotometric assay).
Format: protein assay

Structure (SMILES) | IC50 [µM]
C=C(C)C1Cc2c(c(O)cc3oc4cc(O)c(CC=C(C)C)c(O)c4c(=O)c23)O1 (stereo unspecified) [MANGOSTENONE G] | 45
C=C(C)/C=C/c1c(OC)cc2c(c1O)Cc1cccc(O)c1O2 | 58.5
C=C(C)/C=C/c1c(O)cc2oc3cc(O)c(OC)c(CCC(C)(C)O)c3c(=O)c2c1O | 29.9
C=C(C)/C=C/c1c(OC)cc2c(c1O)Cc1c(O)ccc(O)c1O2 | 50.5
C=C(C)/C=C/c1c(OC)c(O)cc2oc3cc4c(c(O)c3c(=O)c12)C=C(O)C(C)(C)O4 | 31.7
C=C(C)/C=C/c1c(OC)c(O)cc2oc3cc4c(c(O)c3c(=O)c12)C=CC(C)(C)O4 | 34.2
C=C(C)/C=C/c1ccc2oc3c(O)cc(OC)c(CC=O)c3c(=O)c2c1O | 63.5

The compounds below were run against T1, Alpha-glucosidase (assay: Inhibition of yeast alpha-glucosidase using p-nitrophenyl-alpha-D-glucopyranoside as substrate incubated for 30 mins by spectrophotometric assay).
Format: protein assay

Structure (SMILES) | IC50 [µM]
C=C(C)/C=C/c1c(OC)c(OC)cc2oc3cc(O)c(CC(O)C(=C)C)c(O)c3c(=O)c12 (stereo unspecified) | 94.4
COc1c(O)ccc2oc3c4c(c(CC=C(C)C)c(O)c3c(=O)c12)OC(C(C)(O)CCC=C(C)C)C4 (stereo unspecified) | 69
C=C(C)/C=C/c1c(OC)c(OC)cc2oc3cc(O)c(CC=C(C)C)c(O)c3c(=O)c12 | 18.2
C=C(C)/C=C/c1c(O)c(OC)c(/C=C/C(=C)C)c2c(=O)c3c(O)c(CC(O)C(=C)C)c(O)cc3oc12 (stereo unspecified) | 8.3
COc1cc2c(=O)c3c(O)c(C/C=C(\C)CCC=C(C)C)c(O)cc3oc2cc1O [COWAXANTHONE] | 44
CC1Oc2cc(O)c3c(=O)c4c(O)ccc(O)c4oc3c2C1(C)C (stereo unspecified) | 21.2

Each compound was assayed against T1, Alpha-glucosidase (assay: Inhibition of Saccharomyces cerevisiae alpha-glucosidase assessed as release of p-nitrophenol using pNPG as substrate preincubated for 15 mins followed by substrate addition and measured after 5 mins by spectrophotometric assay).
Format: protein assay

Structure (SMILES) | IC50 [µM]
CC(C)=CCC1=C2O[C@]34C(C[C@@H]5C[C@H]3C(C)(C)O[C@@]4(C/C=C(\C)C(=O)O)C5=O)C(=O)[C@@H]2C(O)C2=C1OC(C)C=C2 (stereo partly specified) | > 300
C=C(C)/C=C/[C@]1(C)C=CC2=C(O1)C(CC=C(C)C)=C1O[C@]34C(C(=O)[C@@H]1C2O)[C@@H](OC)[C@@H]1C[C@H]3C(C)(C)O[C@@]4(C/C=C(\C)C(=O)O)C1=O (stereo partly specified) | 108.75
CC(C)=CCC/C(C)=C/Cc1c(C)c(CC=C(C)C)c2c(c1O)C(=O)C1=C[C@@H]3C[C@H]4C(C)(C)O[C@@](CC=C(C)C)(C3=O)[C@@]14O2 | > 300
C=C(C)/C=C/[C@@]1(C)C=CC2=C(O1)C(CC=C(C)C)=C1O[C@]34C(C(=O)[C@@H]1C2O)[C@@H](OCC)[C@@H]1C[C@H]3C(C)(C)O[C@@]4(C/C=C(\C)C(=O)O)C1=O (stereo partly specified) | > 300
C=C(C)/C=C/C1(C)C=CC2=C(O1)C(CC=C(C)C)=C1O[C@]34C(C(=O)[C@@H]1C2O)[C@@H](O)[C@@H]1C[C@H]3C(C)(C)O[C@@]4(C/C=C(\C)C(=O)O)C1=O (stereo partly specified) | 194.7
C=C(C)/C=C/[C@@]1(C)C=CC2=C(O1)C(CC=C(C)C)=C1O[C@]34C(=C[C@@H]5C[C@H]3C(C)(C)O[C@@]4(CC=C(C)C)C5=O)C(=O)[C@@H]1C2O (stereo partly specified) | > 300
C=C(C)C1CCC2(C)CC1c1c(O)c3c(c(CC=C(C)C)c1O2)O[C@]12C(=C[C@@H]4C[C@H]1C(C)(C)O[C@@]2(C/C=C(\C)C(=O)O)C4=O)C3=O (stereo partly specified) | > 300
C=C(C)/C=C/[C@]1(C)C=CC2=C(O1)C(CC=C(C)C)=C1O[C@]34C(=C[C@@H]5C[C@H]3C(C)(C)O[C@@]4(CC=C(C)C)C5=O)C(=O)[C@@H]1C2O (stereo partly specified) | 209.2
C=C(C)/C=C/[C@]1(C)C=CC2=C(O1)C(CC=C(C)C)=C1O[C@]34C(C(=O)[C@@H]1C2O)[C@@H](OCC)[C@@H]1C[C@H]3C(C)(C)O[C@@]4(C/C=C(\C)C(=O)O)C1=O (stereo partly specified) | 111.8
CC(C)=CCC/C(C)=C/Cc1c(C)c(CC=C(C)C)c2c(c1O)C(=O)C1=C[C@@H]3C[C@H]4C(C)(C)O[C@@](C/C=C(\C)C(=O)O)(C3=O)[C@@]14O2 | > 300
CO[C@@H]1C2C(=O)[C@H]3C(=C(CC=C(C)C)C4=C(C=CC(C)O4)C3O)O[C@@]23[C@H]2C[C@@H]1C(=O)[C@]3(C/C=C(\C)C(=O)O)OC2(C)C (stereo partly specified) | 136.35
C=C(C)/C=C/[C@@]1(C)C=CC2=C(O1)C(CC=C(C)C)=C1O[C@]34C(C(=O)[C@@H]1C2O)[C@@H](OC)[C@@H]1C[C@H]3C(C)(C)O[C@@]4(C/C=C(\C)C(=O)O)C1=O (stereo partly specified) | 282.7
CC(C)=CCC1=C2O[C@]34C(=C[C@@H]5C[C@H]3C(C)(C)O[C@@]4(CC=C(C)C)C5=O)C(=O)[C@@H]2C(O)C2=C1OC(C)C=C2 (stereo partly specified) | 140.95

These compounds were tested against T1, Alpha-glucosidase (assay: Inhibition of Saccharomyces cerevisiae alpha-glucosidase using maltose as substrate incubated for 30 mins by spectrophotometric assay).
Format: protein assay

Structure (SMILES) | IC50 [µM]
C=C(C)C1Cc2c(c(O)cc3oc4cc(O)c(CC=C(C)C)c(O)c4c(=O)c23)O1 (stereo unspecified) [MANGOSTENONE G] | > 200
C=C(C)/C=C/c1c(OC)cc2c(c1O)Cc1cccc(O)c1O2 | > 200
C=C(C)/C=C/c1c(O)cc2oc3cc(O)c(OC)c(CCC(C)(C)O)c3c(=O)c2c1O | 140.2
C=C(C)/C=C/c1c(OC)cc2c(c1O)Cc1c(O)ccc(O)c1O2 | > 200
C=C(C)/C=C/c1c(OC)c(O)cc2oc3cc4c(c(O)c3c(=O)c12)C=C(O)C(C)(C)O4 | 155.6
C=C(C)/C=C/c1c(OC)c(O)cc2oc3cc4c(c(O)c3c(=O)c12)C=CC(C)(C)O4 | 92.2
C=C(C)/C=C/c1ccc2oc3c(O)cc(OC)c(CC=O)c3c(=O)c2c1O | > 200

What follows are compounds tested against T1, Alpha-glucosidase (assay: Inhibition of Saccharomyces cerevisiae alpha-glucosidase assessed as release of p-nitrophenol using pNPG as substrate preincubated for 15 mins followed by substrate addition and measured after 15 mins by plate reader analysis).
Format: protein assay

Structure (SMILES) | IC50 [µg/mL]
COc1c(O)cc2oc3ccc(O)cc3c(=O)c2c1O | 7.6 (≈ 27.7 µM)
COc1c(O)cc2oc3ccc(O)c(OC)c3c(=O)c2c1O | 63.4 (≈ 208 µM)
COc1c(O)cc(O)c2c(=O)c3cc(O)ccc3oc12 | 12.8 (≈ 46.7 µM)
COc1cc(O)c2c(=O)c3cc(O)ccc3oc2c1OC | 13.2 (≈ 45.8 µM)
COc1ccc(O)c2c(=O)c3cc(O)ccc3oc12 | 27.6 (≈ 107 µM)
COc1cc(OC)c2c(=O)c3c(O)c(OC)ccc3oc2c1O | 59 (≈ 185 µM)

These compounds were tested against T1, Alpha-glucosidase (assay: Inhibition of Saccharomyces cerevisiae alpha-glucosidase using pNPG as preincubated for 15 mins followed by substrate addition and measured after 30 mins by spectroscopic analysis).

Structure (SMILES) | IC50 [µM]
COc1ccc(O)c2c(=O)c3c(O[C@H]4O[C@@H](CO)[C@H](O[C@H]5O[C@@H](CO)[C@H](O)[C@H](O)[C@@H]5O)[C@H](O)[C@@H]4O)cc(O)c(OC)c3oc12 | 258
O=c1c2c(O)cc(O)cc2oc2c(O)ccc(O[C@@H]3O[C@H](CO)[C@@H](O)[C@H](O)[C@H]3O)c12 [NORSWERTIANOLIN] | 679
COc1c(OC)c(O)c2c(=O)c3c(O[C@H]4O[C@@H](CO[C@H]5OC[C@@H](O)[C@H](O)[C@H]5O)[C@H](O)[C@H](O)[C@@H]4O)ccc(OC)c3oc2c1OC | > 1000
COc1ccc(O)c2c(=O)c3c(O[C@H]4O[C@@H](CO[C@@H]5O[C@@H](CO)[C@H](O)[C@H](O)[C@@H]5O)[C@H](O)[C@H](O)[C@@H]4O)cc(O)c(OC)c3oc12 | 478
COc1cc(O)c2c(=O)c3c(O[C@H]4O[C@@H](CO[C@H]5OC[C@@H](O)[C@H](O)[C@H]5O)[C@H](O)[C@H](O)[C@@H]4O)ccc(OC)c3oc2c1OC | 136
COc1ccc(O)c2c(=O)c3c(O[C@H]4O[C@@H](CO[C@H]5OC[C@@H](O)[C@H](O)[C@H]5O)[C@H](O)[C@H](O)[C@@H]4O)cc(O)c(OC)c3oc12 | 417
COc1c(OC)c(O[C@H]2O[C@@H](CO[C@H]3OC[C@@H](O)[C@H](O)[C@H]3O)[C@H](O)[C@H](O)[C@@H]2O)c2c(=O)c3c(O)ccc(OC)c3oc2c1OC | 442
COc1cc(O)c2c(=O)c3c(O[C@@H]4O[C@H](CO)[C@@H](O)[C@H](O)[C@H]4O)ccc(O)c3oc2c1 [SWERTIANOLIN] | 389
COc1ccc(O)c2c(=O)c3c(O)cc(O[C@H]4O[C@@H](CO)[C@H](O)[C@H](O)[C@@H]4O)cc3oc12 | > 1000
COc1cccc2c(=O)c3c(O)cc(O[C@H]4O[C@@H](CO)[C@H](O)[C@H](O)[C@@H]4O)c(OC)c3oc12 | > 1000
COc1cc(O[C@H]2O[C@@H](CO[C@H]3OC[C@@H](O)[C@H](O)[C@H]3O)[C@H](O)[C@H](O)[C@@H]2O)c2c(=O)c3c(O)ccc(OC)c3oc2c1OC | 142
COc1ccc(O)c2c(=O)c3c(O[C@H]4O[C@@H](CO)[C@H](O)[C@H](O)[C@@H]4O)cc(O)c(OC)c3oc12 | 578
